Source: article PMC8391421, “Identification of Novel Positive Allosteric Modulators of Neurotrophin Receptors for the Treatment of Cognitive Dysfunction” (Cells, 2021)
Entries after “also recorded” stand apart in the source; their conditions may differ.

Columns and labels:
TrkA = target: T1, TrkA (Homo sapiens, UniProt P04629); assay: TrkA PathHunter cell-based assay (U2OS-TrkA/p75)
T1 construct: host or cells: U2OS (human osteosarcoma), co-expressing p75 and SHC-1 fused to the enzyme acceptor
Description: U2OS cells were maintained subconfluent in EMEM supplemented with 10% FBS and penicillin/streptomycin/hygromycin and G418. One day prior to the experiment, 5000 cells of EMEM supplemented with 0.5% horse serum were seeded in each well of a 384-well white plate. The assay was performed as previously described. Briefly, the TrkA or TrkB cell-based PathHunter® assays use enzyme fragment complementation (EFC) technology for the complementation of two β-galactosidase (β-gal) fragments in order to study protein–protein interactions. Upon activation with ligand, TrkA or TrkB are phosphorylated on several tyrosine residues, including tyrosine 490, leading to an interaction with SHC-1. In the PathHunter® assays, the Trk-receptors are fused to an enzyme donor tag, and SHC-1 is fused to a larger part of β-gal called an enzyme acceptor. The interactions between the recombinant enzyme donor, i.e., the Trk-receptor, with an enzyme acceptor, i.e., SHC-1, leads to an active β-gal enzyme. The functional (complemented) β-gal will hydrolyze a substrate to generate a luminescence signal. The generated luminescence was read using an EnVision plate reader from PerkinElmer, Upplands Väsby, Sweden, or an ID5 plate reader from Molecular Devices, Berkshire, RG41 5TS UK. […] Min- and Max-control wells were included on each plate.
Both Toltrazuril and Ponazuril are registered veterinary products prescribed for parasitic infections in animals. […] The activation of Trk-receptors leads to an intracellular interaction between the Trk-receptor and SHC-1 and thereby to the complementation of β-gal, which will render in a functional enzyme. β-gal will hydrolyze a substrate to generate luminescence, which is proportional to the number of activated receptors.

[1] = target: T2, fibroblast growth factor receptor (FGFR1) (Homo sapiens, UniProt P11362); assay: FGFR1 PathHunter cell-based assay (U2OS-FGFR1)
T2 construct: host or cells: U2OS (human osteosarcoma)
T2 sequence (P11362 22-822): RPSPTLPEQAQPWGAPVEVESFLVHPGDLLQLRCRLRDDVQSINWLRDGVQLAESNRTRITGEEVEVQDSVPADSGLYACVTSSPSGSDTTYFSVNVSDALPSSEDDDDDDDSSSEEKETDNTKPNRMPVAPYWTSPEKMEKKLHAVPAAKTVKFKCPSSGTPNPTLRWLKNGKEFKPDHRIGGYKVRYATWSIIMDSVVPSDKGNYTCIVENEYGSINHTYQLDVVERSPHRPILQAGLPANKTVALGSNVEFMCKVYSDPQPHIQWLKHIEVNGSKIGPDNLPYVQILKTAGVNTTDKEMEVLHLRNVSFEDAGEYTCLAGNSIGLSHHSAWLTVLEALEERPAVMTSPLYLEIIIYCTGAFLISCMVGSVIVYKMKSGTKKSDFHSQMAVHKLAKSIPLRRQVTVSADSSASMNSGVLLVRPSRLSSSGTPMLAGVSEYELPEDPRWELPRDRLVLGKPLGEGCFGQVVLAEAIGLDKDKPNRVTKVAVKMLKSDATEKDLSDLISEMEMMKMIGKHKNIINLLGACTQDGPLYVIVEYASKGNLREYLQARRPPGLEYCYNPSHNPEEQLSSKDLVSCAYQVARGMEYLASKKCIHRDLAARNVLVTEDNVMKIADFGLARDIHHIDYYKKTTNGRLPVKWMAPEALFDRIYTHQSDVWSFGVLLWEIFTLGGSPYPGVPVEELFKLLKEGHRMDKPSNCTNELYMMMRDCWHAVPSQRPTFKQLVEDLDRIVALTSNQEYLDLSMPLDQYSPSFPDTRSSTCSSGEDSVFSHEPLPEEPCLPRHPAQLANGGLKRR
Source text: The human osteosarcoma cell lines U2OS-TrkA/p75, U2OS-TrkB/p75, U2OS-TrkC/p75, U2OS-ratTrkA/p75, U2OS-FGFR1 (fibroblast growth factor receptor 1) as well as the human embryonic kidney cell line HEK293-IGF1R (insulin-like growth factor 1 receptor) from DiscoverX, Birmingham, United Kingdom, were used in the in vitro experiments. Eagle’s minimum essential medium (EMEM) ATCC #30-2003 from LGC Standards AB, Borås, Sweden; Leibovitz’s L15 medium, RPMI1640, fetal bovine serum, horse serum, penicillin/streptomycin, and Hoechst dye purchased from Invitrogen, Gothenburg, Sweden, were also used. Black poly-D-lysine coated 384-well plates (Viewplate) were purchased from PerkinElmer, Upplands Väsby, Sweden, and white 384-well assay plates(3570) were purchased from Corning, Amsterdam, Netherlands. […] Recombinant intracellular domain (ICD) of TrkA (08-186) and single site biotinylated activated (08-486-20N) or non-activated TrkA (08-486-23N) were obtained from Carna Biosciences, Odense, Denmark. […]
U2OS cells were maintained subconfluent in EMEM supplemented with 10% FBS and penicillin/streptomycin/hygromycin and G418. […] The functional (complemented) β-gal will hydrolyze a substrate to generate a luminescence signal. The generated luminescence was read using an EnVision plate reader from PerkinElmer, Upplands Väsby, Sweden, or an ID5 plate reader from Molecular Devices, Berkshire, RG41 5TS UK. […]

C57BL/6J mice = assay: Morris water maze; assay type: in vivo, mouse
Description: Male C57BL/6J mice (n = 8/group) from Taconic, Lille Skensved, Denmark, 7–8 weeks of age at arrival, were used in experiments that were predominantly performed as described previously. Vehicle or ACD855 (3 mg/kg; formulated in 20% DMSO in 0.1 M sodium phosphate buffer pH 8.0) was administered daily for the first four days (Day 1–4) through subcutaneous (s.c.) injections (10 mL/kg body weight). During the behavioral training days (Day 5–10), ACD855 or vehicle was administered s.c. 60 min prior to training. Moreover, during the behavioral training days, scopolamine (0.3 mg/kg) or vehicle was administered s.c. 30 min prior to training.

T1 sequence (P04629 33-796): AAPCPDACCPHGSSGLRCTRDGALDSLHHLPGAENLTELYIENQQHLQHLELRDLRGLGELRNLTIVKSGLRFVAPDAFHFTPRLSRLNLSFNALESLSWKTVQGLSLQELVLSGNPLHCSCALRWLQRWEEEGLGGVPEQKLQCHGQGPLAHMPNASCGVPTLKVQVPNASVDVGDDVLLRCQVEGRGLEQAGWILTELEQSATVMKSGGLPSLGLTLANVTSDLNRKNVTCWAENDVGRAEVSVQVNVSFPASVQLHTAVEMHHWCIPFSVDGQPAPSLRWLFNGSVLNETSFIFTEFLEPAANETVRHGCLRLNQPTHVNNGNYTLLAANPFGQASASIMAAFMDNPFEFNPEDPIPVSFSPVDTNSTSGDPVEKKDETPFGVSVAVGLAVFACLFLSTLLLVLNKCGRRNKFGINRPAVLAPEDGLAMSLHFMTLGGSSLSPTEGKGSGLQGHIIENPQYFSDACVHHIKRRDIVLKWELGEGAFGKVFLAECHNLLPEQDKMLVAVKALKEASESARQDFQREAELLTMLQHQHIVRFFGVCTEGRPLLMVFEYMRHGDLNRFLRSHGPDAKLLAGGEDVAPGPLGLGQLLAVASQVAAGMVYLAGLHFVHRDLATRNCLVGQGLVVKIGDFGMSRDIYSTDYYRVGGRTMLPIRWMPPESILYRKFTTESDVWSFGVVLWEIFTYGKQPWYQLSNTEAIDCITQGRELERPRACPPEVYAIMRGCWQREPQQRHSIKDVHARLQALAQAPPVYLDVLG

Q: Which results are given for `Cc1cc(-n2c(=O)[nH]c(=O)n(C)c2=O)ccc1Oc1ccc(S(=O)(=O)C(F)(F)F)cc1` [ACD855, Toltrazuril-sulfone]?
A: modulation of TrkA activity over NGF dose-response curve (TrkA; 0.3, 1 and 3 µM compound with a wide range of NGF concentrations): positively modulated TrkA activity; EC50 (TrkA; PathHunter cell-based assay): 1900 nM; TrkA Effect (efficacy) (TrkA; PathHunter cell-based assay): 144%; activation of TrkA-receptor by compound itself (TrkA; without ligand, 100% = 30 ng/mL ligand): 45%; EC50 [1]: 800 nM; FGFR1 Effect (efficacy) [1]: 44%; effect of compound by itself on cognitive function (swim latency, Day 1) (C57BL/6J mice; 3 mg/kg s.c., no scopolamine, vs vehicle): seemed to improve cognitive function compared to vehicle; also recorded: improved cognitive function compared to vehicle; effect on scopolamine-induced cognitive impairment (swim latency) (C57BL/6J mice; 3 mg/kg s.c., scopolamine 0.3 mg/kg): significantly blocked; also recorded: completely blocked; retention test (probe trial) (C57BL/6J mice; control vs treated groups): only an improvement trend; swim speed (C57BL/6J mice; control vs treated groups): no significant differences
